Values of other authors, collected in patent US4065616A, “Processes for production of a 1-N-(α-hydroxy-.PHI.-amino alkanoyl)-3-deoxy-5-O-pentafuranosyl neamine and new compounds produced by the same processes” (Zaidan Hojin Biseibutsu Kagaku Kenkyu Kai, priority 1975, dated 1977).

Tested on: kanamycin-resistant bacteria
Details: in words, prior work; cited from earlier work
For NCC(O)C(=O)N[C@@H]1C[C@H](N)[C@@H](O[C@H]2O[C@H](CN)[C@@H](O)[C@H](O)[C@H]2O)[C@H](O)[C@H]1O[C@H]1O[C@H](CO)[C@@H](O)[C@H](N)[C@H]1O (some centres unmarked) [1-N-isoserylkanamycin], the “antibacterial activity against resistant bacteria” value (from here on “antibacterial activity”) is listed as “active against the kanamycin-resistant bacteria”.
For NCC(O)C(=O)N[C@@H]1C[C@H](N)[C@@H](O[C@H]2O[C@H](CN)[C@@H](O)[C@H](O)[C@H]2N)[C@H](O)[C@H]1O[C@H]1O[C@H](CO)[C@@H](O)[C@H](N)[C@H]1O (some centres unmarked) [1-N-isoserylkanamycin B], the “antibacterial activity” value is given as “active against the kanamycin-resistant bacteria”.
In the case of NC[C@H]1O[C@H](O[C@H]2[C@H](O)[C@@H](O[C@H]3O[C@H](CO)[C@@H](O)[C@H](N)[C@H]3O)[C@H](N)C[C@@H]2N)[C@H](O)C[C@@H]1O [3'-deoxykanamycin A], the “antibacterial activity” value is given as “high antibacterial activity against the above-mentioned resistant bacteria”.
In the case of NCC(O)C(=O)N[C@@H]1C[C@H](N)[C@@H](O[C@H]2O[C@H](CN)CC[C@H]2N)[C@H](O)[C@H]1O[C@H]1O[C@H](CO)[C@@H](O)[C@H](N)[C@H]1O (some centres unmarked) [1-N-isoseryl-DKB], the “antibacterial activity” value is listed as “active against the kanamycin-resistant bacteria”.
In the case of NC[C@H]1O[C@H](O[C@H]2[C@H](O)[C@@H](O[C@H]3O[C@H](CO)[C@@H](O)[C@H](N)[C@H]3O)[C@H](N)C[C@@H]2N)[C@H](N)C[C@@H]1O [3'-deoxykanamycin B], the “antibacterial activity” value is listed as “high antibacterial activity against the above-mentioned resistant bacteria”.
For NC[C@H]1O[C@H](O[C@H]2[C@H](O[C@@H]3O[C@H](CO)[C@@H](O)[C@H]3O)[C@@H](O)[C@H](N)C[C@@H]2N)[C@H](N)C[C@@H]1O [3'-deoxyribostamycin], the “antibacterial activity” value is given as “high antibacterial activity against the above-mentioned resistant bacteria”.
For NCCC(O)C(=O)N[C@@H]1C[C@H](N)[C@@H](O[C@H]2O[C@H](CN)[C@@H](O)[C@H](O)[C@H]2O)[C@H](O)[C@H]1O[C@H]1O[C@H](CO)[C@@H](O)[C@H](N)[C@H]1O (some centres unmarked) [1-N-(4-amino-2-hydroxybutyryl)-kanamycin], the “antibacterial activity” value is listed as “active against the kanamycin-resistant bacteria”.
In the case of NCCC(O)C(=O)N[C@@H]1C[C@H](N)[C@@H](O[C@H]2O[C@H](CN)CC[C@H]2N)[C@H](O)[C@H]1O[C@H]1O[C@H](CO)[C@@H](O)[C@H](N)[C@H]1O (some centres unmarked) [1-N-(4-amino-2-hydroxybutyryl)-DKB], the “antibacterial activity” value is given as “active against the kanamycin-resistant bacteria”.
